Results as given in patent publication US8022207B2, “Compound having affinity to amyloid” (Nihon Medi-Physics Co., Ltd., priority 2006, dated 2011).
Read-outs that look alike come from different tables or passages of the source.

How the values were obtained:
[1] = test system: Salmonella typhimurium TA98; assay: Reverse mutation test (Ames test), TA98; format: cell-based; conditions: maximum 5000 μg/plate
Procedure: (§1) In order to examine mutagenicity of Compounds 1, 2 and 4, reverse mutation test using Salmonella typhimurium TA98 and TA100 (hereinafter referred to as Ames test) was conducted.
(§2) The test was conducted without addition of S9mix and with addition of S9mix. Dimethylsulfoxide was used as a negative control. A positive control was 2-(2-furyl)-3-(5-nitro-2-furyl)acrylamide in case S9mix was not added, and 2-aminoanthracene in case S9 mix was added.
(§3) The amount of each sample to be added to the test plate was 7 dosages (geometric ratio 4) with the maximum dose being 5000 μg/plate. After a sample to be examined and a strain (TA98 or TA100), or a sample to be examined, S9mix and the strain were mixed together, the mixture was multilayered using soft agar on a medium of a test plate, and then incubated at 37° C. for 48 hours.
(§4) In order to examine mutagenicity of Compound 8, reverse mutation test using Salmonella typhimurium TA98 and TA100 (hereinafter referred to as Ames test) was conducted.
(§5) The test was conducted without addition of S9mix and with addition of S9mix. Dimethylsulfoxide was used as a negative control. A positive control was 2-(2-furyl)-3-(5-nitro-2-furyl)acrylamide in case S9mix was not added, and 2-aminoanthracene in case S9mix was added.
as §3, with “Compound 8” for “each sample”, “3)” for “4)”, “Compound 8” for “a sample to be examined”, “Compound 8,” for “a sample to be examined,”

[2] = test system: Salmonella typhimurium TA100; assay: Reverse mutation test (Ames test), TA100; format: cell-based; conditions: maximum 5000 μg/plate
Procedure: as §1, §2, §3, §4, §5
as §3, with “Compound 8” for “each sample”, “3)” for “4)”, “Compound 8” for “a sample to be examined”, “Compound 8,” for “a sample to be examined,”

[3] = test system: Salmonella typhimurium TA98 and TA100; assay: Reverse mutation test (Ames test), overall judgment; format: cell-based; conditions: TA98 and TA100, regardless of addition of S9mix
Procedure: as §1, §2, §3, §4, §5
as §3, with “Compound 8” for “each sample”, “3)” for “4)”, “Compound 8” for “a sample to be examined”, “Compound 8,” for “a sample to be examined,”

[4] = Partition coefficient based on the octanol extraction method (logPoctanol); format: physicochemical; conditions: octanol / 10 mmol/L phosphate buffer (pH 7.4), radioactivity count
Procedure: Using the obtained radioactivity count, logPoctanol was calculated in accordance with the equation (2).

[5] = target: intracerebral amyloid (aggregated Aβ1-40 injected into amygdaloid nucleus) (Homo sapiens, UniProt P05067); conditions: rat, Aβ1-40 amyloid suspension in amygdaloid nucleus, brain removed 60 minutes after tail vein injection
Procedure: The following experiment was carried out in order to examine whether amyloid in brain can be imaged by the compound of the present invention.
The rats were examined 1 day after the injection of the amyloid suspension and the phosphate buffered physiological saline solution (pH 7.4).
(§6) (4) Brain was removed 60 minutes after the injection to prepare a brain slice of 10 μm in thickness with a microtome (type: CM3050S, manufactured by LEICA). The brain slice was exposed to an imaging plate for 20 hours, and then image analysis was carried out by use of a Bio-imaging Analyzer (type: BAS-2500; manufactured by FUJIFILM Corporation).

[6] = Transferability into brain and clearance (Example I-16, Comparative Example I-7); conditions: brain, rats, intravenous injection
Procedure: Using Compound 6, a time course change of radioactive accumulation in brain of male Wistar rats (7-week old) was measured.
Also, radioactivity (hereinafter referred to as B in this Example) of 0.05 mL of a 1000-fold diluted solution of the injected solution was measured in the same manner as above. Using these measurement results, radioactive accumulation per unit weight of brain (% ID/g) at the respective time points was calculated in accordance with the following formula (5).

[7] = target: T1, intracerebral amyloid (aggregated Aβ1-42 injected into amygdaloid nucleus) (Homo sapiens, UniProt P05067); assay: Ex vivo autoradiogram using rats of amyloid injected model (aggregated Aβ1-42); design: species or system male Wistar rat; conditions: rat, Aβ1-42 amyloid suspension in amygdaloid nucleus, brain removed 60 minutes after tail vein injection
T1 construct: Aβ1-42 (manufactured by Peptide Institute, Inc.) was dissolved in phosphate buffer (pH 7.4); purchased Peptide Institute, Inc
Procedure: As a control, 2.5 μL of a phosphate buffered physiological saline solution (pH 7.4) was injected into an amygdaloid nucleus on the other side of the rat. The rats were examined 1 day after the injection of the amyloid suspension and the phosphate buffered physiological saline solution (pH 7.4).
as §6

[8] = Transferability into brain and clearance (Example II-11, II-12, Comparative Example II-1); format: in vivo, male Wistar rats; conditions: brain, rats, intravenous injection
Procedure: The rats were sacrificed by bleeding from abdominal artery, and brains were removed and subjected to measurement of mass of brains and further subjected to measurement of radioactivity (hereinafter referred to as A in this Example) with a single channel analyzer (detector type: SP-20 manufactured by OHYO KOKEN KOGYO Co., Ltd.) 2, 5, 30 and 60 minutes after the injection. Also, radioactivity (hereinafter referred to as B in this Example) of the rest of the whole body was measured in the same manner as above. Using these measurement results, radioactive accumulation per unit weight of brain (% ID/g) at the respective time points were calculated in accordance with the following formula (6).
Three animals were used for experiment at the respective time points.

[9] = International Publication WO03/106439 pamphlet; cited from earlier work
[10] = [^125I]-labeled, normal mice, brain; cited from earlier work
[11] = [^125I]-labeled compounds; cited from earlier work
[12] = [^11C]-labeled, rats; cited from earlier work

T1 sequence (P05067 672-713): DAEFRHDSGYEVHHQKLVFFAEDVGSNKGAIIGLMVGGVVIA
intracerebral amyloid (aggregated Aβ1-40 injected into amygdaloid nucleus), sequence (P05067 672-711): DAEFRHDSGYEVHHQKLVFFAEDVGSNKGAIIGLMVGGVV

Oc1ccc(-c2cn3cc(Br)ccc3n2)cc1 [Compound 1, 6-bromo-2-(4′-hydroxyphenyl)imidazo[1,2-a]pyridine]
Mutagenicity, With addition of S9mix, TA98 ([1]; 7 dosages (geometric ratio 4)): Negative | Mutagenicity, Without addition of S9mix, TA98 ([1]; 7 dosages (geometric ratio 4)): Negative | Mutagenicity, With addition of S9mix, TA100 ([2]; 7 dosages (geometric ratio 4)): Negative | Mutagenicity, Without addition of S9mix, TA100 ([2]; 7 dosages (geometric ratio 4)): Negative | Judgment in the Ames test (mutagenicity) [3]: negative

Oc1ccc(-c2cn3cc(I)ccc3n2)cc1 [Compound 2, 2-(4′-hydroxyphenyl)-6-iodoimidazo[1,2-a]pyridine]
Mutagenicity, With addition of S9mix, TA98 ([1]; 7 dosages (geometric ratio 4)): Negative | Mutagenicity, Without addition of S9mix, TA98 ([1]; 7 dosages (geometric ratio 4)): Negative | Mutagenicity, With addition of S9mix, TA100 ([2]; 7 dosages (geometric ratio 4)): Negative | Mutagenicity, Without addition of S9mix, TA100 ([2]; 7 dosages (geometric ratio 4)): Negative | Judgment in the Ames test (mutagenicity) [3]: negative

Oc1ccc(-c2cn3cc(I)cnc3n2)cc1 [Compound 4, 2-(4′-hydroxyphenyl)-6-iodoimidazo[1,2-a]pyrimidine]
Mutagenicity, With addition of S9mix, TA98 ([1]; 7 dosages (geometric ratio 4)): Negative | Mutagenicity, Without addition of S9mix, TA98 ([1]; 7 dosages (geometric ratio 4)): Negative | Mutagenicity, With addition of S9mix, TA100 ([2]; 7 dosages (geometric ratio 4)): Negative | Mutagenicity, Without addition of S9mix, TA100 ([2]; 7 dosages (geometric ratio 4)): Negative | Judgment in the Ames test (mutagenicity) [3]: negative

Oc1ccc(-c2cn3cc([125I])ccc3n2)cc1 [Compound 5, [^125I]-2-(4′-hydroxyphenyl)-6-iodoimidazo[1,2-a]pyridine]
logPoctanol value [4]: 1.6

Oc1ccc(-c2cn3cc([123I])ccc3n2)cc1 [Compound 6, [^123I]-2-(4′-hydroxyphenyl)-6-iodoimidazo[1,2-a]pyridine]
Accumulation of radioactivity on intracerebral amyloid (autoradiogram of brain slice) [5]: possesses a property of accumulating on intracerebral amyloid | Radioactive accumulation per unit weight, After 2 min. [6]: 0.96 % ID/g | Radioactive accumulation per unit weight, After 5 min. [6]: 0.69 % ID/g | Radioactive accumulation per unit weight, After 30 min. [6]: 0.16 % ID/g | Radioactive accumulation per unit weight, After 60 min. [6]: 0.04 % ID/g

Oc1ccc(-c2cn3cc(I)ncc3n2)cc1 [Compound 8, 2-(4′-hydroxyphenyl)-6-iodoimidazo[1,2-a]pyrazine]
Mutagenicity, With addition of S9mix, TA98 ([1]; 7 dosages (geometric ratio 3)): Negative | Mutagenicity, Without addition of S9mix, TA98 ([1]; 7 dosages (geometric ratio 3)): Negative | Mutagenicity, With addition of S9mix, TA100 ([2]; 7 dosages (geometric ratio 3)): Negative | Mutagenicity, Without addition of S9mix, TA100 ([2]; 7 dosages (geometric ratio 3)): Negative | Judgment in the Ames test (mutagenicity) [3]: negative

Oc1ccc(-c2cn3cc([123I])cnc3n2)cc1 [Compound 9, [^123I]-2-(4′-hydroxyphenyl)-6-iodoimidazo[1,2-a]pyrimidine]
logPoctanol value [4]: 1.7

Oc1ccc(-c2cn3cc([123I])ncc3n2)cc1 [Compound 10, [^123I]-2-(4′-hydroxyphenyl)-6-iodoimidazo[1,2-a]pyrazine]
Accumulation of radioactivity in the amygdaloid nucleus on the amyloid-injected side (autoradiogram of brain slice) [7]: marked accumulation of radioactivity | logPoctanol value [4]: 2.3 | Radioactive accumulation per unit weight, After 2 min. [8]: 0.62 % ID/g | Radioactive accumulation per unit weight, After 5 min. [8]: 0.33 % ID/g | Radioactive accumulation per unit weight, After 30 min. [8]: 0.08 % ID/g | Radioactive accumulation per unit weight, After 60 min. [8]: 0.02 % ID/g

Oc1ccc(-c2cn3cccc([123I])c3n2)cc1 [Compound 11, [^123I]-2-(4′-hydroxyphenyl)-8-iodoimidazo[1,2-a]pyridine]
Accumulation of radioactivity in the amygdaloid nucleus on the amyloid-injected side (autoradiogram of brain slice) [7]: marked accumulation of radioactivity | logPoctanol value [4]: 3.0 | Radioactive accumulation per unit weight, After 2 min. [8]: 0.65 % ID/g | Radioactive accumulation per unit weight, After 5 min. [8]: 0.43 % ID/g | Radioactive accumulation per unit weight, After 30 min. [8]: 0.09 % ID/g | Radioactive accumulation per unit weight, After 60 min. [8]: 0.03 % ID/g

CC(=C(C#N)C#N)c1ccc2cc(N(C)CCF)ccc2c1 [FDDNP, 2-(1-{6-[(2-fluoroethyl)(methyl)amino]-2-naphthyl}ethylidene)malononitrile]
Reverse mutation test result [9]: positive

CN(C)c1ccc(-c2nc3ccc(I)cc3o2)cc1 [IBOX, 6-iodo-2-[4′-(N,N-dimethylamino)phenyl]benzoxazole]
Clearance from normal tissues [10]: insufficient in clearance from normal tissues

CN(C)c1ccc(-c2cn3cc(I)ccc3n2)cc1 [IMPY, 6-iodo-2-[4′-(N,N-dimethylamino)phenyl]imidazo[1,2-a]pyridine]
Clearance from normal tissues [11]: rapid clearance from normal tissues | Reverse mutation test result [9]: positive

CNc1ccc(/C=C/c2ccc(O)cc2)cc1 [SB-13, (E)-4-methylamino-4′-hydroxystilbene]
Clearance from normal tissues [12]: it cannot be said that the clearance is sufficiently fast

CN(C)c1ccc(-c2nc3ccc(I)cc3s2)cc1 [TZDM, 6-iodo-2-[4′-(N,N-dimethylamino)phenyl]benzothiazole]
Clearance from normal tissues [10]: insufficient in clearance from normal tissues

CN(C)c1ccc(-c2cn3cc([125I])ccc3n2)cc1 [[^125I]-IMPY, reference compound]
logPoctanol value [4]: 2.1

CN(C)c1ccc(-c2cn3cc([123I])ccc3n2)cc1 [^123I-IMPY, reference compound]
Radioactive accumulation per unit weight, After 2 min. [6]: 1.02 % ID/g | Radioactive accumulation per unit weight, After 5 min. [6]: 0.99 % ID/g | Radioactive accumulation per unit weight, After 30 min. [6]: 0.20 % ID/g | Radioactive accumulation per unit weight, After 60 min. [6]: 0.08 % ID/g | Radioactive accumulation per unit weight, After 2 min. [8]: 1.19 % ID/g | Radioactive accumulation per unit weight, After 5 min. [8]: 0.97 % ID/g | Radioactive accumulation per unit weight, After 30 min. [8]: 0.23 % ID/g | Radioactive accumulation per unit weight, After 60 min. [8]: 0.09 % ID/g

CN(C)c1ccc(/C=C/c2ccc(I)cc2)cc1 [m-I-SB, (E)-4-dimethylamino-4′-iodostilbene]
Clearance from normal tissues [10]: insufficient in clearance from normal tissues
